In data set [1] the test system is MDCK cells. How it is done: (§1) The relative effect of varying concentrations of the antifungal agent miconazole on fungal C. albicans cells treated with membrane potential indicator dye DiOC6(3) [Molecular Probes], mammalian MDCK cells treated with DiOC6(3) and mammalian MDCK cells treated with PI, was assessed as described above in Examples 1 and 2, except that fungal C. albicans or mammalian MDCK cells were resuspended to a concentration of 1×10^6 cells/mL.

In data set [2] the test system is Candida albicans strain SLU#1. In words: Flow cytometry of fungal cells treated with test agent and membrane potential dye DiOC6(3). The class given is cell-based. Particulars: for concentration at which loss of fungal cell viability occurs: C. albicans SLU#1; for change in DiOC6(3) fluorescence intensity (mean channel from baseline) vs. concentration: C. albicans, 1 hour incubation with agent, 10 ng/mL DiOC6(3), FL1 530 nm, FIG. 1 / FIG. 3. How it is done:
A stock fungal cell suspension was prepared as follows. Fungi (Candida albicans strain SLU#1) were cultured on Sabouraud's dextrose agar plates [1 L water, 10 g neopeptone, 20 g dextrose, 15 g Bacto Agar]. One or two colonies from the agar plate were inoculated into 5 mL of Sabouraud's dextrose broth (SDB) [1 L water, 10 g neopeptone, 20 g dextrose] in a sterile 10 mL polypropylene tube and incubated for about 18 hours at 30° C. After this incubation, 4 mL of the fungal culture was inoculated into a flask containing 100 mL of SDB and incubated for about 5 hours or until log growth phase was reached. The culture was centrifuged at 3000 rpm for 5 minutes (Sorvall RT6000B centrifuge), the supernatant was decanted and the pellets were resuspended in a total of 30 mL of SDB. Fungal cell concentration was determined either by absorbance at 570 nm or by diluting 1:10 with Trypan Blue and counting the number of fungal cells using a hemacytometer. The suspension was diluted with SDB to obtain a stock fungal cell suspension of approximately 1-2×10^6 CFU/mL.
Stock 1 mg/mL solutions of peptides XMP.391 and XMP.445 were prepared in saline, and six 2-fold serial dilutions were prepared using phosphate buffered saline (PBS). The fungal cell suspension was divided into 1 mL aliquots, and approximately 20 μL of each serial dilution of XMP.391 or XMP.445 peptide solution was added to an aliquot of fungal cell suspension to obtain final peptide concentrations of 0.313, 0.625, 1.25, 2.5, 5, 10 and 20 μg/mL in the aliquots. No peptide solution was added to the auto-fluorescence and baseline controls. The aliquots were incubated for 1 hour at 30° C. After the incubation, all aliquots were centrifuged at 3000 rpm for 5 minutes (Sorvall RT6000B) and the supernatant removed. The auto-fluorescence control aliquot was resuspended in 1 mL of SDB; the remainder of the samples and the baseline control were resuspended in 1 mL of 10 ng/mL DiOC6(3)/SDB. The auto-fluorescence control thus contained fungal cells in SDB alone (without XMP peptide and without dye), while the baseline control contained fungal cells with dye (but without XMP peptide). […]
The samples were analyzed for fluorescence on the FACScan flowcytometer [Becton-Dickinson, Mountain View, Calif.] using the fl1 detector at a wavelength of 530 nm using the following parameters:
The auto-fluorescence control was used for gating and fluorescence sensitivity was determined using the baseline control. The percent change in fluorescent intensity, expressed as mean channels, was determined by dividing the difference between the sample and baseline values by the baseline value: (sample fl1−baseline fl1)/baseline fl1×100.
(In flow cytometry, cells or beads pass a laser one at a time.)

The test system of data set [3] is C. albicans SLU#1 strain. The format is cell-based, Candida albicans.
Data set [4] deals with Madin-Derby canine kidney epithelial (MDCK) cells. The method, then: The same procedure was also carried out using mammalian Madin-Derby canine kidney epithelial (MDCK) cells (ATCC Accession No. CCL34). The MDCK cells were cultured until confluent in MEM media supplemented with 10% fetal calf serum (FCS) and L-glutamine. The cells were harvested and resuspended to approximately 1-2×10^6 cells/mL in RPMI media, treated with XMP.391 or XMP.445 at concentrations varying from 5 μg/mL to 100 μg/mL, and incubated for 1 hour. The cells were then stained with DiOC6(3) for 30 minutes and fluorescence intensity was determined in the same manner as described above for C. albicans.
as §1

The subject of data set [5] is bacterial growth. Particulars: background statement; cited from earlier work.
For data set [6] the following is noted: background statement; cited from earlier work.
The subject of data set [7] is CACO-2 and MDCK cells. The format is in vitro ADME. The method, then:
Various BPI-derived peptides were screened for oral absorption in in vitro screening assays using CACO-2 and MDCK cells. Cultured monolayers of CACO-2 (Human colon carcinoma) [Audus, K. L., et al. Pharm. […] The cells were grown to confluency and allowed to differentiate. The integrity of the monolayers was determined by measuring the transepithelial resistance. The cells were incubated with peptide on the apical side for 2.5 hours in MDCK screening or 4 hours for CACO-2 screening. The transepithelial transport of the peptide was measured by quantitative HPLC analysis of the incubation media on the basolateral side of the cells. Radiolabelled mannitol and cortisone were used as positive controls.

Data set [8] deals with C. albicans SLU#1. In words: Propidium iodide (PI) uptake by fungal cells, flow cytometry. The format is cell-based, Candida albicans. Particulars: C. albicans SLU#1, 10 μg/mL PI, FL2 585 nm; FIG. 2.
Excerpt: As in Example 1, the auto-fluorescence control contained fungal or mammalian cells in media alone (without XMP peptide and without PI), while the baseline control contained fungal or mammalian cells with PI (but without XMP peptide). Because it is a viability dye, PI is taken up only when cells are dying or dead; the fluorescent intensity of PI-treated samples should increase with the number of dead cells and should be maximal with 100% dead cells. Thus, for this experiment, a positive control was also prepared (containing 100% dead cells) by resuspending cells in 1 mL of 70% ethanol during the last 10 minutes of the initial 1-hour incubation; this positive control thus contained 100% dead cells with PI (but without XMP peptide). Samples were analyzed for PI uptake on the FACScan using the fl2 detector at a wavelength of 585 nm. The auto-fluorescence sample was used for gating, while the fluorescence sensitivity was determined by the positive control and the PI uptake threshold was determined by the baseline control. The percent change in fluorescent intensity in mean channels was determined using the same equation used in Example 1, and the percentage of cells with PI uptake (ie., dead cells) was calculated.
Data set [9] deals with Candida albicans, SLU-1. In words: 28-day comparative survival efficacy study in mice systemically infected with Candida albicans, oral gavage. Particulars: for mortality vs dextrose-treated controls: male DBA/2 mice, eight times, 28 days. The format is in vivo. The method, then:
XMP.445 was tested for activity upon oral administration (oral activity) in a 28-day comparative survival efficacy study in mice systemically infected with Candida albicans. Specifically, male DBA/2 mice (Charles River Laboratories) six weeks of age were dosed with 7.9×10^4 Candida albicans, SLU-1 in 100 μl intravenously via the tail vein in a single dosage on day 0. Treatment began immediately thereafter with 400 μl oral gavage of either 0.5% dextrose, or XMP.445 in 0.5% dextrose at levels of either 10 mg/kg or 20 mg/kg every other day for a total of eight times. Amphotericin B (Fungizone®) was administered intravenously at 0.5 mg/kg as a positive control every other day for a total of eight times. Twice-day monitoring (once daily on weekends and holidays) for mortality was performed.

Data set [10] concerns fungal cells. In words: Confocal microscopy localization of membrane potential indicator dye in fungal cells. The format is cell-based. Particulars: DiOC6(3) 10 ng/mL or MitoTracker Red CM-H2Xros 1 μg/mL, 1 hour peptide incubation. How it is done: Confocal microscopy provides focused fluorescence detection, one plane or slice at a time, at a focus level that allows unobstructed localization of fluorescence within cells. A suspension of 1×10^6 fungal cells/mL was prepared as described above in Example 1 and 1 mL was dispensed into each of four Eppendorf microcentrifuge tubes. Two μL of 1 mg/mL XMP.445 (in saline) was added to two tubes and all four tubes were incubated for 1 hour at 30° C. After the incubation, all tubes were centrifuged in an Eppendorf 5415 centrifuge. The supernatant was removed and the pellet resuspended in 1 mL of SDB. The membrane potential indicator dye DiOC6(3) (diluted in SDB from a stock solution of 2 mg/mL in EtOH) was added to one set of peptide-treated and untreated tubes to a final concentration of 10 ng/mL. The membrane potential indicator dye MitoTracker™ Red CM-H2Xros (from a freshly prepared solution of 500 μg/mL in DMSO) was added to another set of peptide-treated and untreated tubes to a final concentration of 1 μg/mL. The tubes were incubated at 30° C. for 30 min. After the incubation the tubes were centrifuged and the supernatant removed. The pellets were resuspended in 100 μL of 30% glycerol/PBS solution. Three μL from each tube was pipetted onto a microscope slide with a No. 1 cover glass and placed onto a Zeiss 510 Confocal Microscope that uses LSM Version 2.01 software. […]

In brackets after ≈: the same amount, converted by molar mass. Like-named read-outs stand apart in the source and are kept apart here. Square brackets hold non-standard residues; d marks the D form. Peptide text beside a SMILES is read from it.

The text below walks through data of US6455271B1, “Identification of novel antimicrobial agents using membrane potential indicator dyes” (XOMA Technology, Ltd, priority 1998, dated 2002).

On to `Clc1ccc(COC(Cn2ccnc2)c2ccc(Cl)cc2Cl)c(Cl)c1` (stereo not drawn) [miconazole, reference compound], for which the “mammalian cell viability by PI uptake” value in data set [1] was “increase in fluorescence intensity indicating cell death”. In data set [2], the “concentration at which loss of fungal cell viability occurs” value is recorded as “less than or equal to 1 μg/mL” and the “change in DiOC6(3) fluorescence intensity (mean channel from baseline) vs. concentration” value is listed as “concentration-dependent increase in fluorescence intensity”.

`CC[C@H](C)[C@H](NC(=O)[C@H](CC(C)C)NC(=O)[C@H](Cc1c[nH]c2ccccc12)NC(=O)CNC(=O)[C@@H](NC(=O)[C@@H](N)CCCCN)C(C)C)C(=O)N[C@@H](CCC(N)=O)C(=O)N[C@@H](CC(C)C)C(=O)N[C@@H](Cc1ccccc1)C(=O)N[C@@H](Cc1c[nH]cn1)C(=O)N[C@@H](CCCCN)C(=O)N[C@@H](CCCCN)C(=O)O` [XMP.391] (H-KVGWLIQLFHKK-OH; N-terminus and C-terminus assumed) gave a minimum fungicidal concentration in [3] of 2 µg/mL (≈ 1.34 µM). In addition, in [4], the “change in DiOC6(3) fluorescence intensity in mammalian cells” value was “no substantial increase in fluorescence intensity”.

Regarding gentamicin, in [5], the “concentration required to produce a therapeutic effect” value was 8 µg/mL. Moreover, in [6], the “concentration that produces a toxic effect” value was 12000 ng/mL.

As to `CC[C@H](C)[C@H](NC(=O)[C@H](CC(C)C)NC(=O)[C@H](Cc1c[nH]c2ccccc12)NC(=O)CNC(=O)[C@H](NC(=O)[C@H](N)CCCCN)C(C)C)C(=O)N[C@@H](CCC(N)=O)C(=O)N[C@@H](CC(C)C)C(=O)N[C@@H](Cc1ccccc1)C(=O)N[C@@H](Cc1c[nH]cn1)C(=O)N[C@H](CCCCN)C(=O)N[C@H](CCCCN)C(=O)O` [XMP.445] (H-[dK][dV]GWLIQLFH[dK][dK]-OH; N-terminus and C-terminus assumed), the “intestinal absorption screening outcome” value in data set [7] is “potential orally available compound”. The “mammalian cell viability by PI uptake” value in [1] (MDCK cells, PI, XMP.445 even at a concentration of 50-fold or greater) was “did not substantially affect viability of mammalian cells”. For the same compound, in data set [2], the “concentration at which loss of fungal cell viability occurs” value is recorded as “about 4 μg/mL” and the “change in DiOC6(3) fluorescence intensity (mean channel from baseline) vs. concentration” value is reported as “concentration-dependent increase in fluorescence intensity”. The “fungal cell viability by PI uptake” value in data set [8] was “reduction of fungal cell viability or fungal cell death”. For the same compound, the “mortality vs dextrose-treated controls” value in data set [9] (oral gavage 10 mg/kg every other day) was “significant improvement (p-value of 0.025)”. For the same compound, the “mortality vs dextrose-treated controls” value in data set [9] (oral gavage 10 mg/kg or 20 mg/kg every other day) is reported as “improvements in mortality compared with the dextrose-treated controls”. The “oral activity (study conclusion)” value in [9] (mice systemically infected with C. albicans, oral gavage) is listed as “has oral antifungal activity”. In addition, in data set [3], the minimum fungicidal concentration stood at 4 µg/mL (≈ 2.67 µM). The “change in DiOC6(3) fluorescence intensity in mammalian cells” value in [4] was “no substantial increase in fluorescence intensity”. Besides, the “fluorescence intensity and localization by confocal microscopy vs untreated cells” value in data set [10] is recorded as “increased fluorescence intensity that was localized at the mitochondria”.
